Experimental data as given in patent US9253985B2, “Herbicidal composition for tolerant or resistant cereal crops” (priority 2010, dated 2016).
Where two headings read alike, the source gives them in different places.

Columns and labels:
Assay type in all cases: in vivo
[1] = tested on: wheat (GA-tolerant)
Protocol: (§1) The trials were carried out under greenhouse conditions (test pots, diameter 8 cm, spray application using 300 l of water/hectare, 2 repetitions, 6 to 8 plants per pot).
(§2) At the time of application, the harmful plants were at the 2-4-leaf growth stage.

[2] = tested on: Brassica napus (volunteer weed); experiment: Greenhouse trial: herbicidal efficacy, Brassica napus; details: post-emergence 2-4-leaf, 14 days after application, g of ai/ha: A1.1 100, B1.1 5, C12 12.5, C18 50, mixtures at same rates
Protocol: as §1
(§3) At the time of application, the harmful plants were at the 2-4-leaf growth stage. The application rates of the herbicidally active compounds used on their own or in combinations are listed in the results tables.
(§4) Scoring was by visual comparison of the treated with the untreated controls (0-100% scale, 14 days after the application. The results (means for all plants per pot and means of two repetitions per pot and treatment) are listed in Tables 4 to 8 below.
(§5) 4.2 Abbreviations used in Tables 4 to 6application rate g/ai=application rate in grams of active compound per hectare • ai=active ingredient (of an active compound content of 100%) • GA=glufosinate-ammonium • wheat tolerant • to GA=GA-tolerant wheat (GMO) • E^C=expected value according to Colby, (E^C=A+B−A×B/100)= • =for ternary combinations: (A+B)+C−(A+B)×C/100 • E^A=expected value according to the addition method (E^A=A+B) • Δ=difference (%) between observed value —%—vs. expected value (%) (observed value minus expected value) • examination: observed values for (A), (B) and (A)+(B) in % • scoring: observed value (%) greater>than E^C/E^A:->synergism (+Δ) • observed value (%) equal to =E^C/E^A->additive effect (+−0Δ) • observed value (%) smaller<than E^A/E^C->antagonism (−Δ)

[3] = tested on: Matricaria chamomilla; experiment: Greenhouse trial: herbicidal efficacy, Matricaria chamomilla; details: post-emergence 2-4-leaf, 14 days after application, g of ai/ha: A1.1 100, B1.1 5, C5 1.25, C24 12.5, C9 7.5, C32 62.5, C37 5, C58 5, C60 10, C61 25, C66 0.375, C71 0.5, C74 0.375, C42 125, mixtures at same rates
Protocol: as §1, §3, §4, §5

[4] = tested on: Setaria viridis; experiment: Greenhouse trial: herbicidal efficacy, Setaria viridis; details: post-emergence 2-4-leaf, 14 days after application
Protocol: as §1, §3, §4, §5

[5] = tested on: Lolium multiflorum; experiment: Greenhouse trial: herbicidal efficacy, Lolium multiflorum; details: post-emergence 2-4-leaf, 14 days after application, g of ai/ha: A1.1 100, B1.1 5, C62 1.25, C4 60, mixtures at same rates
Protocol: as §1, §3, §4, §5

[6] = tested on: Viola arvensis; experiment: Greenhouse trial: herbicidal efficacy, Viola arvensis; details: post-emergence 2-4-leaf, 14 days after application, g of ai/ha: A1.1 100, B1.1 5, C7 100, C25 1.25, C52 2.5, C43 100, C57 5, mixtures at same rates
Protocol: as §1, §2

[7] = Table 4, greenhouse, post-emergence, 14 days after application, g of ai/ha: A1.1 100, B1.1 5, C5 1.25, C24 12.5, C9 7.5, C32 62.5, C37 5, C58 5, C60 10, C61 25, C66 0.375, C71 0.5, C74 0.375, C42 125, mixtures at same rates
[8] = Table 5, greenhouse, post-emergence, 14 days after application, g of ai/ha: A1.1 100, B1.1 5, C7 100, C25 1.25, C52 2.5, C43 100, C57 5, mixtures at same rates
[9] = Table 6, greenhouse, post-emergence, 14 days after application, g of ai/ha: A1.1 100, B1.1 5, C12 12.5, C18 50, mixtures at same rates
[10] = Table 7, greenhouse, post-emergence, 14 days after application, g of ai/ha: A1.1 100, line r12 5, C28 50, C40 1, C43 100, C13 50, mixtures (100 + 5) + partner rate
[11] = Table 8, greenhouse, post-emergence, 14 days after application, g of ai/ha: A1.1 100, B1.1 5, C62 1.25, C4 60, mixtures at same rates
[12] = g of ai/ha: A1.1 100, line r12 5, C28 50, C40 1, C43 100, C13 50, mixtures (100 + 5) + partner rate

With CP(=O)(O)CCC(N)C(=O)O (stereo not drawn) [(A1.1) GA, glufosinate-ammonium] the “Damage to crop plants (%) wheat (GA-tolerant)” value (“Damage to crop plants (%) wheat” for short) [1, 7] was 10%, the “Damage to crop plants (%) wheat” value [1, 8] was 10% and the “Damage to crop plants (%) wheat” value [1, 9] was 10%. The “Damage to crop plants (%) wheat” value [1, 10] was 10%, the “Damage to crop plants (%) wheat” value [1, 11] was 10% and the “Herbicidal efficacy (%) Brassica napus” value [2] was 15%. The “Herbicidal efficacy (%) Matricaria chamomilla” value [3] was 50%, the “Herbicidal efficacy (%) Setaria viridis” value ([4]; g of ai/ha: A1.1 100, C28 50, C40 1, C43 100, C13 50, mixtures (100 + 5) + partner rate) was 90% and the “Herbicidal efficacy (%) Lolium multiflorum” value [5] was 15%. For the same compound, the “Herbicidal efficacy (%) Viola arvensis” value [6] was 50%.
In the case of COC(=O)c1nc(-c2ccc(Cl)c(OC)c2F)cc(N)c1Cl [(B1.1), methyl 4-amino-3-chloro-6-(4-chloro-2-fluoro-3-methoxyphenyl)pyridine-2-carboxylate], the “Damage to crop plants (%) wheat” value ([1]; in vivo) is reported as 0%, the “Herbicidal efficacy (%) Brassica napus” value [2] is reported as 60% and the “Herbicidal efficacy (%) Matricaria chamomilla” value [3] is reported as 20%. The “Herbicidal efficacy (%) Lolium multiflorum” value [5] was 0% and the “Herbicidal efficacy (%) Viola arvensis” value [6] was 50%.
CCOC(=O)C1=NN(c2ccc(Cl)cc2Cl)C(C)(C(=O)OCC)C1 (stereo not drawn) [(C4) mefenpyr-di-et, mefenpyr(-diethyl)] was tested, and the “Damage to crop plants (%) wheat” value [1, 11] was 0% and the “Herbicidal efficacy (%) Lolium multiflorum” value [5] was 0%.
With COc1cc(OC)nc(NC(=O)NS(=O)(=O)N(C)S(C)(=O)=O)n1 [(C5) amidosulfuron, amidosulfuron] the “Damage to crop plants (%) wheat” value ([1]; in vivo) was 0% and the “Herbicidal efficacy (%) Matricaria chamomilla” value [3] was 45%.
In the case of N#Cc1cc(Br)c(O)c(Br)c1 [(C7) bromoxynil, bromoxynil], the “Damage to crop plants (%) wheat” value [1, 8] is reported as 0% and the “Herbicidal efficacy (%) Viola arvensis” value [6] is reported as 20%.
CCOC(=O)C(Cl)Cc1cc(-n2nc(C)n(C(F)F)c2=O)c(F)cc1Cl (stereo not drawn) [(C9) carfentrazone, carfentrazone-ethyl] was tested, and the “Damage to crop plants (%) wheat” value [1, 7] was 10% and the “Herbicidal efficacy (%) Matricaria chamomilla” value [3] was 0%.
C#CCOC(=O)[C@@H](C)Oc1ccc(Oc2ncc(Cl)cc2F)cc1 [(C12) clodinafop, clodinafop-propargyl] was tested, and the “Damage to crop plants (%) wheat” value ([1]; in vivo) was 0% and the “Herbicidal efficacy (%) Brassica napus” value [2] was 0%.
For O=C(O)COc1ccc(Cl)cc1Cl [(C13) 2,4-D, 2,4-D], the “Damage to crop plants (%) wheat” value [1, 10] was 0% and the “Herbicidal efficacy (%) Setaria viridis” value [4, 12] was 0%.
O=C(Nc1ccc(F)cc1F)c1cccnc1Oc1cccc(C(F)(F)F)c1 [(C18) diflufenican, diflufenican] was tested, and the “Damage to crop plants (%) wheat” value [1, 9] was 10% and the “Herbicidal efficacy (%) Brassica napus” value [2] was 30%.
CCOC(=O)[C@@H](C)Oc1ccc(Oc2nc3ccc(Cl)cc3o2)cc1 [(C24) fenoxaprop-p-et., fenoxaprop-P-ethyl] was tested, and the “Damage to crop plants (%) wheat” value [1, 7] was 0% and the “Herbicidal efficacy (%) Matricaria chamomilla” value [3] was 0%.
In the case of COc1ncc(F)c2nc(S(=O)(=O)Nc3c(F)cccc3F)nn12 [(C25) florasulam, florasulam], the “Damage to crop plants (%) wheat” value [1, 8] is reported as 0% and the “Herbicidal efficacy (%) Viola arvensis” value [6] is reported as 20%.
With CC(C)N(C(=O)COc1nnc(C(F)(F)F)s1)c1ccc(F)cc1 [(C28) flufenacet, flufenacet (thiafluamide)] the “Herbicidal efficacy (%) Setaria viridis” value [4, 12] was 20%.
CNC1=C(c2cccc(C(F)(F)F)c2)C(=O)C(c2ccccc2)O1 (stereo not drawn) [(C32) flurtamone, flurtamone] was tested, and the “Damage to crop plants (%) wheat” value [1, 7] was 15% and the “Herbicidal efficacy (%) Matricaria chamomilla” value [3] was 25%.
For COCc1cnc(C2=NC(C)(C(C)C)C(=O)N2)c(C(=O)O)c1 (stereo not drawn) [(C37) imazamox, imazamox], the “Damage to crop plants (%) wheat” value [1, 7] was 15% and the “Herbicidal efficacy (%) Matricaria chamomilla” value [3] was 0%.
In the case of COC(=O)c1ccc(I)cc1S(=O)(=O)[N-]C(=O)Nc1nc(C)nc(OC)n1.[Na+] [(C40) iodosulfuron-me-Na, iodosulfuron-methyl-sodium], the “Damage to crop plants (%) wheat” value [1, 10] is reported as 0% and the “Herbicidal efficacy (%) Setaria viridis” value [4, 12] is reported as 10%.
With CC(C)c1ccc(NC(=O)N(C)C)cc1 [(C42) isoproturon, isoproturon] the “Damage to crop plants (%) wheat” value ([1]; in vivo) was 0% and the “Herbicidal efficacy (%) Matricaria chamomilla” value [3] was 15%.
For Cc1cc(Cl)ccc1OCC(=O)O [(C43) MCPA, MCPA], the “Damage to crop plants (%) wheat” value [1, 8] was 0%, the “Damage to crop plants (%) wheat” value [1, 10] was 0% and the “Herbicidal efficacy (%) Setaria viridis” value [4, 12] was 0%. For the same compound, the “Herbicidal efficacy (%) Viola arvensis” value [6] was 10%.
COC(=O)c1ccc(CNS(C)(=O)=O)cc1S(=O)(=O)NC(=O)Nc1nc(OC)cc(OC)n1 [(C52) mesosulfuron-me, mesosulfuron-methyl] was tested, and the “Damage to crop plants (%) wheat” value ([1]; in vivo) was 0% and the “Herbicidal efficacy (%) Viola arvensis” value [6] was 0%.
COc1cnc(OC)n2nc(NS(=O)(=O)c3c(OCC(F)F)cccc3C(F)(F)F)nc12 [(C57) penoxulam, penoxsulam] was tested, and the “Damage to crop plants (%) wheat” value ([1]; in vivo) was 0% and the “Herbicidal efficacy (%) Viola arvensis” value [6] was 5%.
In the case of CCc1cc(C)cc(CC)c1-c1c(OC(=O)C(C)(C)C)n2n(c1=O)CCOCC2 [(C58) pinoxaden, pinoxaden], the “Damage to crop plants (%) wheat” value [1, 7] is reported as 0% and the “Herbicidal efficacy (%) Matricaria chamomilla” value [3] is reported as 0%.
With CCCOc1nn(C(=O)[N-]S(=O)(=O)c2ccccc2C(=O)OC)c(=O)n1C.[Na+] [(C60) propoxycarbazone-Na, propoxycarbazone-sodium] the “Damage to crop plants (%) wheat” value [1, 7] was 10% and the “Herbicidal efficacy (%) Matricaria chamomilla” value [3] was 10%.
Cc1nn(C)c(O)c1C(=O)c1ccc(C(F)(F)F)cc1S(C)(=O)=O [(C61) pyrasulfutole, pyrasulfutole] was tested, and the “Damage to crop plants (%) wheat” value ([1]; in vivo) was 0% and the “Herbicidal efficacy (%) Matricaria chamomilla” value [3] was 50%.
With COc1cc(OC)n2nc(NS(=O)(=O)c3c(C(F)(F)F)ccnc3OC)nc2n1 [(C62) pyroxulam, pyroxsulam] the “Damage to crop plants (%) wheat” value ([1]; in vivo) was 10% and the “Herbicidal efficacy (%) Lolium multiflorum” value [5] was 40%.
With COC(=O)c1csc(C)c1S(=O)(=O)NC(=O)n1nc(OC)n(C)c1=O [(C66) thiencarbazone-me, thiencarbazone-methyl] the “Damage to crop plants (%) wheat” value ([1]; in vivo) was 5% and the “Herbicidal efficacy (%) Matricaria chamomilla” value [3] was 10%.
For COc1nc(C)nc(N(C)C(=O)NS(=O)(=O)c2ccccc2C(=O)O)n1 [(C71) tribenuron, tribenuron], the “Damage to crop plants (%) wheat” value [1, 7] was 0% and the “Herbicidal efficacy (%) Matricaria chamomilla” value [3] was 0%.
For COc1nc(C)nc(=NC(=O)NS(=O)(=O)c2ccccc2C(=O)O)[nH]1 [(C74) metsulfuron, metsulfuron], the “Damage to crop plants (%) wheat” value [1, 7] was 0%.
